Laboratory results as given in patent US7560473B2 (Institute of Pharmacology and Toxicology Academy of …, priority 2001, dated 2009).
Marks after values point to notes of the source that are not given here.

Legend:
[1] = test system: outward potassium currents in smooth muscle cells derived from intrapulmonary arteries; experiment: Whole cell recording of outward potassium currents in intrapulmonary arterial SMCs and glibenclamide antagonism; assay type: cell-based, Wistar rats
Method: Effects of Compound 1 on Potassium Currents in Isolated Intrapulmonary arterial SMCs and Glibenclamide Antagonism
The outward potassium currents were recorded in smooth muscle cells derived from intrapulmonary arteries of normotensive rats. Cells were sealed, clamped at −70 mV and depolarized to +50 mV at an increasing step of 10 mV with 100 ms duration. After application of compound 1 at the concentration of 10 μmol L^−1, the amplitude of the currents in 5/8 cells was increased to 115.4±2.8% compared with control recorded before compound application (P<0.01 n=5). While in the presence of both compound 1 and glibenclamide at the concentration of 10 μmol L^−1 and 30 μmol L^−1 respectively, the amplitude of the outward potassium currents in 7/7 cells was detected to be 83.1±8.3% of control, which was decreased compared with the presence of compound 1 only (P<0.01 n=7).
2. Preparation of smooth muscle cells from intrapulmonary arteries: Male Wistar rats were killed by decapitation. The intrapulmonary arteries were isolated and moved quickly into physiological salt solutions (PSS, 4° C.) Then the arteries were cut longitudinally and cut into small segments after scraping off the endothelium gently with a cotton swab. The fragments were then incubated at 37° C. in Ca^2+-free PSS for 20 to 30 minutes. […]

jirds = experiment: Pan-cerebral ischemia-reperfusion injury in jirds (BCAO); assay type: in vivo; conditions: 7 days, dosage-dependent
Method: Biological Activity Experiment 7 The Protective Effects of compound 1 on Pan-Cerebral Ischemia-Reperfusion Injury in Jirds
The methods of biological activity experiment were carried out as follows: equal amounts of male and female jirds (60-70 g) were subjected to bilateral cervical aorta occlusion (BCAO) under narcotism. The drugs or equal amounts of physiological saline solution were injected peritoneally at 30 min before occlusion. After the blood flow in the bilateral cervical aorta was blocked for 5 min, reperfusion was restored and the drug was administered once a day for 7 days. During the BCAO, the body temperature was maintained at 37° C. In the control group, the cervical aorta was only exposed, while not blocked for blood flow. The animals were divided in 6 groups randomly: control group, ischemic group and compound-treated group (0.5, 1.0, 2.0 and 4.0 mg.kg^−1, ip). 7 days after BCAO, the animals were deeply anesthetized by injecting peritoneally 80 mg.kg^−1 pentobarbitol sodium, and perfused with 50 mL physiological saline solution and 4% paraformaldehyde through heart. The brain was dissected, immersed in 4% paraformaldehyde for 24 h, dehydrated, cleared, embedded with paraffin, sectioned and stained with HE. TUNEL staining was employed to detect the nerve apoptosis.

SHRsp = experiment: Prophylaxis and treatment of SHRsp cerebral apoplexy; assay type: in vivo, rats; conditions: for Survival time: control 4.6 ± 3.8; for Survival time / Period needed for onset of cerebral apoplexy: means ± SD; for Period needed for onset of cerebral apoplexy: control 48.3 ± 7.4; for Death rate of cerebral apoplexy / Rate of cerebral apoplexy: n 12; for Death rate of cerebral apoplexy: control 50.0; for Rate of cerebral apoplexy: control 83.3
Method: Biological activity experiment 8 the prophylaxis and treatment of cerebral apoplexy with compound 1 of formula Ia
The methods of biological activity experiments were carried out as follows: Desired concentration of compound 1 was prepared with distilled water, while desired concentration of nimodipine was prepared with market available Jinglongyu^T oil. 30 male and 30 female SHRsp (10 weeks old, 120-180 g) were purchased from the vascular disease research center of Academy of Military Medical Science. All SHRsp were divided randomly into five groups based on blood pressure, body weight and sex: control group (fed with equal amount of Jinglongyu^T oil), […], […], […], and 4.0 mg.kg^−1d^−1 nimodipine treated group. Each group contained 12 animals and 4-5 animals were fed in a cage. The feedstaff (containing 23-24% protein) was purchased from experimental animal center of Academy of Military Medical Science. The animals were fed with tap water containing 1% NaCl to accelerate the onset of cerebral apoplexy. 12 normal WKY rats (with the same age and sex with the above) were selected as control, and fed with tap water and the same feedstuff. When reached 11 weeks old, the animals were fed with drugs for experiments.

cordical nerve = experiment: Cordical nerve apoptosis induced by low level oxygen and glucose; assay type: cell-based, Wistar rats; conditions: for Apoptosis percentage: low level oxygen and glucose 16 h, flow cytometer, control 2.3 ± 1.2, low oxygen and glucose alone 23.8 ± 7.4, means ± SD
Method: Biological Activity Experiment 9 The Inhibition Effects of Compound 1 on the Cordical Nerve Apoptosis Induced by Low Level Oxygen and Glucose
The methods of biological activity experiment 9 were carried out as follows: The cordical nerve were prepared from 12-hour old Wistar rats and cultured. See G. Y. Yang, A. L. Bentz. Reperfusion-induced injure to the blood-brain after middle cerebral artery occlusion in rats. Stroke, 1994,25:1658-1665. Serum-free DMEM medium was applied 12 days later. The preparation was incubated in low oxygen tank (95% N2+5% CO2) for 8, 16 and 24 h respectively, and then restored oxygen to normal level for another 24 h. The experiments on five groups were as follows: the control group was cultured for 14 days with normal medium; low level oxygen and glucose treated group was cultured with normal medium for 12 days, then with serum-free medium containing low level oxygen and glucose for 16 h and with normal oxygen level for another 24 h; compound 1 treated group was cultured in serum-free medium containing low level oxygen and glucose for 16 h and with normal oxygen level for another 24 h, then added respectively different concentrations of compound 1 (0.1, 1.0 and 10 umol.L^−1). As to the method for detecting apoptosis by the electron microscopy and flow cytometer, refer to C.Du, R.Hu, C. A. Csernansky, et al. Very delayed infarction after mild focal cerebral ischemia: a role for apoptosis. J.Cereb.Flow Metab., 1996,16:195-201; M.Chopp, Y.Li, N.Jiang, et al. Antibodies against adhesion molecules reduced apoptosis after transient middle artery occlusion in rat brain. J.Cereb.Flow Metab., 1996,16:578-584.

How did the “amplitude of the outward potassium currents compared with control” value ([1]; compound 1 10 μmol L^−1, 5/8 cells, n=5) turn out when `CC(C)NC(C)(C)C(C)C` [compound 1, N-(1-methylethyl)-2,3-dimethyl-2-butylamine] was run?
The value was 115.4±2.8%.

What about the “amplitude of the outward potassium currents, of control” value ([1]; compound 1 10 μmol L^−1 in the presence of glibenclamide 30 μmol L^−1, 7/7 cells, n=7) of the same compound?
The value was 83.1±8.3%.

What about the “number of dead pyramidal nerve of hippocampal CA1 region (HE staining)” value (jirds; 0.5-4.0 mg.kg^−1.d^−1 ip) of the same compound?
The value was “significantly decreased the number of dead pyramidal nerve”.

And the “apoptosis of pyramidal nerve of hippocampal CA1 region (TUNEL)” value (jirds; 0.5-4.0 mg.kg^−1 ip)?
The value was “significantly alleviate the apoptosis”.

What about the Survival time (SHRsp; 0.25 mg · kg^−1d^−1 fed) of the same compound?
The Survival time was 7.2 ± 5.3 days.

And the “Period needed for onset of cerebral apoplexy” value (shortened to “Period needed for onset”) (SHRsp; 0.25 mg · kg^−1d^−1 fed)?
Its value is 58.6 ± 14.1 days.

And the “Death rate of cerebral apoplexy” value (SHRsp; 0.25 mg · kg^−1d^−1 fed)?
Its value is 27.3%.

What about the “Rate of cerebral apoplexy” value (SHRsp; 0.25 mg · kg^−1d^−1 fed) of the same compound?
Its value is 72.7%.

And the Survival time (SHRsp; 1 mg · kg^−1d^−1 fed)?
The Survival time was 10.2 ± 4.1 days.

And the “Period needed for onset” value (SHRsp; 1 mg · kg^−1d^−1 fed)?
Its value is 60.8 ± 18.9 days.

And the “Death rate of cerebral apoplexy” value (SHRsp; 1 mg · kg^−1d^−1 fed)?
Its value is 20.0%.

What about the “Rate of cerebral apoplexy” value (SHRsp; 1 mg · kg^−1d^−1 fed) of the same compound?
Its value is 40.0* %.

And the Survival time (SHRsp; 4 mg · kg^−1d^−1 fed)?
Its Survival time is 11.8 ± 3.2 days.

What about the “Period needed for onset” value (SHRsp; 4 mg · kg^−1d^−1 fed) of the same compound?
Its value is 68.6 ± 16.5 days.

And the “Death rate of cerebral apoplexy” value (SHRsp; 4 mg · kg^−1d^−1 fed)?
Its value is 8.3* %.

And the “Rate of cerebral apoplexy” value (SHRsp; 4 mg · kg^−1d^−1 fed)?
The value was 33.3* %.

And the “nerve symptom of cerebral apoplexy (in words)” value (SHRsp; SHRsp)?
The value was “significantly improve the nerve symptom”.

What about the Apoptosis percentage (cordical nerve; 0.1 umol · L^−1) of the same compound?
The Apoptosis percentage was 17.6 ± 5.8%.

And the Apoptosis percentage (cordical nerve; 1 umol · L^−1)?
Its Apoptosis percentage is 13.9 ± 5.2 %.

What about the Apoptosis percentage (cordical nerve; 10 umol · L^−1) of the same compound?
The Apoptosis percentage was 10.8 ± 4.1 %.

What about the “apoptotic changes of cordical nerve cells under electron microscopy (in words)” value (cordical nerve; 10 umol.L^−1, low level oxygen and glucose) of the same compound?
The value was “the above mentioned changes were hardly observed”.
